{"source": "patent US6753297B2", "about": "“Use of indole-3-succinic acid as auxin” (priority 2001, dated 2004)", "key": {"Fuchsia hybrida": {"tested_on": "Fuchsia hybrida", "experiment": "Effectiveness of indole-3-succinic acid derivatives in root growth, procedure of Example 3", "assay_type": "in vivo", "conditions": "10^−7 M aqueous solution", "procedure": "(§1) Five new-growth cuttings of two different varieties of Fuchsia hybrida (i.e., Varigated Fuchsia and Swingtime Fuchsia) were placed into the 50 mL solutions contained in orange plastic pill containers that were blackened with black electrician's tape. The solutions were placed in a fiberglass solar prism greenhouse (90% of UV light is filtered out of sunlight) in which the temperatures varied from 55° F. (night) to 100° F. (day). The solutions were topped with deionized water daily to the 50 mL mark to compensate for water […] and evaporation. Readings of the root growth were measured in total mm for the cuttings in a particular solution on days 7, 10, 14, 18, 22, 26, 30, and 34. These were recorded as the number of rootlets/total length (mm). […] Therefore, all data reflect the average mm root growth per survived cutting.\nThe process recited in Example 1 was followed to make the derivatives and they were each tested in accordance with the procedure in Example 3 in a 10^−7 M aqueous solution. The derivatives and their effectiveness compared to conventional auxins is reported below."}, "Swingtime Fuchsia": {"tested_on": "Swingtime Fuchsia", "experiment": "Root growth of Swingtime Fuchsia cuttings in hydroponic auxin solution", "assay_type": "in vivo, Fuchsia hybrida", "conditions": "for Enhancement Ratio: Swingtime Fuchsia (SF), R = (ISAx − H2O)/(IBA − H2O), average root growth per cutting; for root growth activity compared to IBA: versus 10^−7 M IBA", "procedure": "(§2) This example illustrates the auxin effect of each indole-3-succinic acid enantiomer and indole-3-succinic acid racemate, and compares them to IBA and water. A detailed description of this root growth study follows.\n(§3) Fresh solutions were used in each experiment. Weights of hormone salts were measured to ±0.01 mg on a Mettler H-16 single-pan mechanical balance (reproducibility=±0.03 mg). Using indole-3-succinic acid R and S enantiomers as the 2×NH4^+ salt, 1.40 mg, was dissolved in 95% ethanol (20 mL) and slowly diluted to 500 mL with deionized water to make a stock solution of 1.047×10^−5 molar concentration. Dilutions were then made in the following manner.\n(§4) For the concentration study (S)-indole-3-succinic acid; 2NH4^+ (98% e/e, 1.41 mg), and IBA Na(1.13 mg) were used to make stock solution of 1.055×10^−5 and 1.005×10^−5 molar, respectively. Deionized water was also used as a control.\nas §1\n(§5) This example compares indole-3-succinic acid enantiomers and ISA racemate to IBA and IAA. More specifically, Table 1 illustrates the relative effectiveness (in promoting root growth) of different indole-3-succinic acid solutions compared to 10^−7 M indole-3-butyric acid (IBA) and a 10^−7 M […].\n(§6) This example was conducted in the same manner as in Example 2 above."}, "Varigated Fuchsia": {"tested_on": "Varigated Fuchsia", "experiment": "Root growth of Varigated Fuchsia cuttings in hydroponic auxin solution", "assay_type": "in vivo, Fuchsia hybrida", "conditions": "for Enhancement Ratio: Varigated Fuchsia (VF), R = (ISAx − H2O)/(IBA − H2O), average root growth per cutting; for root growth activity compared to IBA: versus 10^−7 M IBA", "procedure": "as §2, §3, §4, §1, §5, §6"}}, "data": [{"compound": "O=C(O)CC(C(=O)O)c1c[nH]c2ccc(Br)cc12", "note": "(centres unmarked) [5-bromoindole-3-succinic acid]", "values": [{"measurement": "Effectiveness compared to IAA", "setting": "Fuchsia hybrida", "result": "same as IAA"}]}, {"compound": "O=C(O)CC(C(=O)O)c1c[nH]c2ccccc12", "note": "(racemic) [Racemic ISA, indole-3-succinic acid]", "values": [{"measurement": "melting point", "result": "196 to 198", "unit": "°C"}, {"measurement": "Enhancement Ratio", "setting": "Swingtime Fuchsia; 10^−7 M", "result": 7.0}, {"measurement": "root growth activity compared to IBA", "setting": "Swingtime Fuchsia; Swingtime Fuchsia", "result": "significantly higher"}]}, {"compound": "O=C(O)CC(C(=O)O)c1c[nH]c2ccc(Cl)cc12", "note": "(centres unmarked) [5-chloroindole-3-succinic acid]", "values": [{"measurement": "Effectiveness compared to IAA", "setting": "Fuchsia hybrida", "result": 2, "unit": "× more effective than IAA"}]}, {"compound": "O=C(O)C[C@@H](C(=O)O)c1c[nH]c2ccccc12", "note": "[(R)-ISA, (R)-indole-3-succinic acid]", "values": [{"measurement": "Enhancement Ratio", "setting": "Varigated Fuchsia; 10^−7 M", "result": 0.7}, {"measurement": "Enhancement Ratio", "setting": "Varigated Fuchsia; 10^−8 M", "result": 4.4}, {"measurement": "root growth activity compared to IBA", "setting": "Varigated Fuchsia; Varigated Fuchsia", "result": "nearly the same activity"}, {"measurement": "Enhancement Ratio", "setting": "Swingtime Fuchsia; 10^−7 M", "result": 5.6}, {"measurement": "Enhancement Ratio", "setting": "Swingtime Fuchsia; 10^−8 M", "result": 7.1}, {"measurement": "potency compared to the other ISA enantiomer", "setting": "Swingtime Fuchsia; Swingtime Fuchsia, 10^−8 M, FIG. 5", "result": "more potent"}]}, {"compound": "CC(CC(=O)O)c1c[nH]c2ccccc12", "note": "(centres unmarked) [3′-indole-3-methylpropanoic acid]", "values": [{"measurement": "Effectiveness compared to IBA", "setting": "Fuchsia hybrida", "result": "same as IBA"}]}, {"compound": "O=C(O)CC(c1ccccc1)c1c[nH]c2ccccc12", "note": "(centres unmarked) [3′-indole-3-phenylpropanoic acid]", "values": [{"measurement": "Effectiveness compared to IAA", "setting": "Fuchsia hybrida", "result": 2, "unit": "× as effective as IAA"}]}, {"compound": "O=C(O)C[C@H](C(=O)O)c1c[nH]c2ccccc12", "note": "[(S)-ISA, (S)-indole-3-succinic acid]", "values": [{"measurement": "Enhancement Ratio", "setting": "Varigated Fuchsia; 10^−7 M", "result": 3.8}, {"measurement": "Enhancement Ratio", "setting": "Varigated Fuchsia; 10^−8 M", "result": 4.6}, {"measurement": "potency compared to the other ISA enantiomer", "setting": "Varigated Fuchsia; Varigated Fuchsia, all concentrations of ISA, FIG. 5", "result": "more potent"}, {"measurement": "Enhancement Ratio", "setting": "Swingtime Fuchsia; 10^−7 M", "result": 5.7}, {"measurement": "Enhancement Ratio", "setting": "Swingtime Fuchsia; 10^−8 M", "result": 4.8}]}, {"compound": "O=C(O)CC(C(=O)O)c1c[nH]c2cccc(Cl)c12", "note": "(centres unmarked) [4-chloroindole-3-succinic acid]", "values": [{"measurement": "Effectiveness compared to IAA", "setting": "Fuchsia hybrida", "result": 22, "unit": "× more effective than IAA"}]}, {"compound": "O=C(O)Cc1c[nH]c2ccccc12", "note": "[IAA, indole-3-acetic acid, reference compound]", "values": [{"measurement": "Enhancement Ratio", "setting": "Varigated Fuchsia; 10^−7 M", "result": 0}, {"measurement": "root growth activity compared to IBA", "setting": "Varigated Fuchsia; Varigated Fuchsia", "result": "substantially lower levels of activity"}, {"measurement": "Enhancement Ratio", "setting": "Swingtime Fuchsia; 10^−7 M", "result": 0}, {"measurement": "root growth activity compared to IBA", "setting": "Swingtime Fuchsia; Swingtime Fuchsia", "result": "substantially lower levels of activity"}]}]}
